Source: patent EP1285920A1, “C10 Ester sustituted taxanes as antitumor agents” (Florida State University Research Foundation, Inc., priority 2001, dated 2003)

Tested on: HCT116
Test: In Vitro cytotoxicity measured by the cell colony formation assay
Assay type: cell-based, human
Conditions: Homo sapiens, HCT-116; read-out: IN VITRO ID 50 HCT116
Protocol: Four hundred cells (HCT116) were plated in 60 mm Petri dishes containing 2.7 mL of medium (modified McCoy's 5a medium containing 10% fetal bovine serum and 100 units/mL penicillin and […] streptomycin). The cells were incubated in a CO2 incubator at 37 °C for 5 h for attachment to the bottom of Petri dishes. The compounds identified in Example 2 were made up fresh in medium at ten times the final concentration, and then 0.3 mL of this stock solution was added to the 2.7 mL of medium in the dish. The cells were then incubated with drugs for 72 h at 37 °C. At the end of incubation the drug-containing media were decanted, the dishes were rinsed with 4 mL of Hank's Balance Salt Solution (HBSS), 5 mL of fresh medium was added, and the dishes were returned to the incubator for colony formation. The cell colonies were counted using a colony counter after incubation for 7 days.

Question: How did the IC50 turn out when `CCC(=O)O[C@H]1C(=O)[C@@]2(C)[C@H]([C@H](OC(=O)c3ccccc3)[C@]3(O)C[C@H](OC(=O)[C@H](O)[C@@H](NC(=O)OC(C)(C)C)c4cccnc4)C(C)=C1C3(C)C)[C@]1(OC(C)=O)CO[C@@H]1C[C@@H]2O` [Compound 0517] was run?
Answer: The IC50 was under 10 nM.

Question: For `CCC(=O)O[C@H]1C(=O)[C@@]2(C)[C@H]([C@H](OC(=O)c3ccccc3)[C@]3(O)C[C@H](OC(=O)[C@H](O)[C@@H](NC(=O)OC(C)(C)C)c4ccncc4)C(C)=C1C3(C)C)[C@]1(OC(C)=O)CO[C@@H]1C[C@@H]2O` [Compound 0521], which IC50 is on record?
Answer: The IC50 was under 1 nM.

Question: Which IC50 does the source give for `CCC(=O)O[C@H]1C(=O)[C@@]2(C)[C@H]([C@H](OC(=O)c3ccccc3)[C@]3(O)C[C@H](OC(=O)[C@H](O)[C@@H](NC(=O)OC(C)(C)C)c4ccoc4)C(C)=C1C3(C)C)[C@]1(OC(C)=O)CO[C@@H]1C[C@@H]2O` [Compound 0549] here?
Answer: The IC50 was under 10 nM.

Question: For `CCC(=O)O[C@H]1C(=O)[C@@]2(C)[C@H]([C@H](OC(=O)c3ccccc3)[C@]3(O)C[C@H](OC(=O)[C@H](O)[C@@H](NC(=O)OC(C)(C)C)c4ccsc4)C(C)=C1C3(C)C)[C@]1(OC(C)=O)CO[C@@H]1C[C@@H]2O` [Compound 0562], which IC50 is on record?
Answer: The IC50 was under 1 nM.

Question: `CCC(=O)O[C@H]1C(=O)[C@@]2(C)[C@H]([C@H](OC(=O)c3ccccc3)[C@]3(O)C[C@H](OC(=O)[C@H](O)[C@@H](NC(=O)OC(C)(C)C)C4CC4)C(C)=C1C3(C)C)[C@]1(OC(C)=O)CO[C@@H]1C[C@@H]2O` [Compound 0578] was tested. Which IC50 did it give?
Answer: Its IC50 is under 1 nM.

Question: `CCC(=O)O[C@H]1C(=O)[C@@]2(C)[C@H]([C@H](OC(=O)c3ccccc3)[C@]3(O)C[C@H](OC(=O)[C@H](O)[C@@H](NC(=O)OC(C)(C)C)C(C)C)C(C)=C1C3(C)C)[C@]1(OC(C)=O)CO[C@@H]1C[C@@H]2O` [Compound 0583] was tested. Which IC50 did it give?
Answer: The IC50 was under 10 nM.

Question: How did the IC50 turn out when `CCC(=O)O[C@H]1C(=O)[C@@]2(C)[C@H]([C@H](OC(=O)c3ccccc3)[C@]3(O)C[C@H](OC(=O)[C@H](O)[C@@H](NC(=O)OC(C)(C)C)C4CCC4)C(C)=C1C3(C)C)[C@]1(OC(C)=O)CO[C@@H]1C[C@@H]2O` [Compound 0596] was run?
Answer: The IC50 was under 10 nM.

Question: Which IC50 does the source give for `CCC(=O)O[C@H]1C(=O)[C@@]2(C)[C@H]([C@H](OC(=O)c3ccccc3)[C@]3(O)C[C@H](OC(=O)[C@H](O)[C@@H](NC(=O)OC(C)(C)C)c4ccc([N+](=O)[O-])cc4)C(C)=C1C3(C)C)[C@]1(OC(C)=O)CO[C@@H]1C[C@@H]2O` [Compound 0602] here?
Answer: Its IC50 is under 1 nM.

Question: With `CCC(=O)O[C@H]1C(=O)[C@@]2(C)[C@H]([C@H](OC(=O)c3ccccc3)[C@]3(O)C[C@H](OC(=O)[C@H](O)[C@H](C=C(C)C)NC(=O)c4ccccc4)C(C)=C1C3(C)C)[C@]1(OC(C)=O)CO[C@@H]1C[C@@H]2O` [Compound 0625] as the compound, how does the IC50 read?
Answer: Its IC50 is under 1 nM.

Question: For `CCC(=O)O[C@H]1C(=O)[C@@]2(C)[C@H]([C@H](OC(=O)c3ccccc3)[C@]3(O)C[C@H](OC(=O)[C@H](O)[C@@H](NC(=O)c4ccccc4)c4ccccn4)C(C)=C1C3(C)C)[C@]1(OC(C)=O)CO[C@@H]1C[C@@H]2O` [Compound 0634], which IC50 is on record?
Answer: Its IC50 is under 10 nM.

Question: How did the IC50 turn out when `CCC(=O)O[C@H]1C(=O)[C@@]2(C)[C@H]([C@H](OC(=O)c3ccccc3)[C@]3(O)C[C@H](OC(=O)[C@H](O)[C@@H](NC(=O)c4ccccc4)c4cccnc4)C(C)=C1C3(C)C)[C@]1(OC(C)=O)CO[C@@H]1C[C@@H]2O` [Compound 0647] was run?
Answer: The IC50 was 12 nM.

Question: Which IC50 does the source give for `CCC(=O)O[C@H]1C(=O)[C@@]2(C)[C@H]([C@H](OC(=O)c3ccccc3)[C@]3(O)C[C@H](OC(=O)[C@H](O)[C@@H](NC(=O)c4ccccc4)c4ccncc4)C(C)=C1C3(C)C)[C@]1(OC(C)=O)CO[C@@H]1C[C@@H]2O` [Compound 0659] here?
Answer: Its IC50 is under 1 nM.

Question: How did the IC50 turn out when `CCC(=O)O[C@H]1C(=O)[C@@]2(C)[C@H]([C@H](OC(=O)c3ccccc3)[C@]3(O)C[C@H](OC(=O)[C@H](O)[C@@H](NC(=O)c4ccccc4)c4ccsc4)C(C)=C1C3(C)C)[C@]1(OC(C)=O)CO[C@@H]1C[C@@H]2O` [Compound 0691] was run?
Answer: Its IC50 is under 1 nM.

Question: Which IC50 does the source give for `CCC(=O)O[C@H]1C(=O)[C@@]2(C)[C@H]([C@H](OC(=O)c3ccccc3)[C@]3(O)C[C@H](OC(=O)[C@H](O)[C@@H](NC(=O)c4ccccc4)C(C)C)C(C)=C1C3(C)C)[C@]1(OC(C)=O)CO[C@@H]1C[C@@H]2O` [Compound 0719] here?
Answer: Its IC50 is under 10 nM.

Question: How did the IC50 turn out when `CCC(=O)O[C@H]1C(=O)[C@@]2(C)[C@H]([C@H](OC(=O)c3ccccc3)[C@]3(O)C[C@H](OC(=O)[C@H](O)[C@@H](NC(=O)c4ccccc4)C4CCC4)C(C)=C1C3(C)C)[C@]1(OC(C)=O)CO[C@@H]1C[C@@H]2O` [Compound 0720] was run?
Answer: Its IC50 is under 10 nM.

Question: Which IC50 does the source give for `CCC(=O)O[C@H]1C(=O)[C@@]2(C)[C@H]([C@H](OC(=O)c3ccccc3)[C@]3(O)C[C@H](OC(=O)[C@H](O)[C@@H](NC(=O)c4ccccc4)c4ccc([N+](=O)[O-])cc4)C(C)=C1C3(C)C)[C@]1(OC(C)=O)CO[C@@H]1C[C@@H]2O` [Compound 0732] here?
Answer: Its IC50 is under 10 nM.

Question: `CC(=O)O[C@@]12CO[C@@H]1C[C@H](O)[C@@]1(C)C(=O)[C@H](OC(=O)C3CC3)C3=C(C)[C@@H](OC(=O)[C@H](O)[C@@H](NC(=O)OC(C)(C)C)c4ccco4)C[C@@](O)([C@@H](OC(=O)c4ccccc4)[C@H]21)C3(C)C` [Compound 0843] was tested. Which IC50 did it give?
Answer: The IC50 was under 1 nM.

Question: How did the IC50 turn out when `CC(=O)O[C@@]12CO[C@@H]1C[C@H](O)[C@@]1(C)C(=O)[C@H](OC(=O)C3CC3)C3=C(C)[C@@H](OC(=O)[C@H](O)[C@@H](NC(=O)OC(C)(C)C)C4CC4)C[C@@](O)([C@@H](OC(=O)c4ccccc4)[C@H]21)C3(C)C` [Compound 0860] was run?
Answer: Its IC50 is under 1 nM.

Question: Which IC50 does the source give for `CC(=O)O[C@@]12CO[C@@H]1C[C@H](O)[C@@]1(C)C(=O)[C@H](OC(=O)C3CC3)C3=C(C)[C@@H](OC(=O)[C@H](O)[C@@H](NC(=O)OC(C)(C)C)c4ccc([N+](=O)[O-])cc4)C[C@@](O)([C@@H](OC(=O)c4ccccc4)[C@H]21)C3(C)C` [Compound 0879] here?
Answer: Its IC50 is under 1 nM.

Question: `CC(=O)O[C@@]12CO[C@@H]1C[C@H](O)[C@@]1(C)C(=O)[C@H](OC(=O)C3CC3)C3=C(C)[C@@H](OC(=O)[C@H](O)[C@@H](NC(=O)OC(C)(C)C)c4ccccc4)C[C@@](O)([C@@H](OC(=O)c4ccccc4)[C@H]21)C3(C)C` [Compound 0882] was tested. Which IC50 did it give?
Answer: The IC50 was under 1 nM.

Question: For `CC(=O)O[C@@]12CO[C@@H]1C[C@H](O)[C@@]1(C)C(=O)[C@H](OC(=O)C3CC3)C3=C(C)[C@@H](OC(=O)[C@H](O)[C@H](C=C(C)C)NC(=O)c4ccccc4)C[C@@](O)([C@@H](OC(=O)c4ccccc4)[C@H]21)C3(C)C` [Compound 0890], which IC50 is on record?
Answer: The IC50 was under 1 nM.

Question: Which IC50 does the source give for `CC(=O)O[C@@]12CO[C@@H]1C[C@H](O)[C@@]1(C)C(=O)[C@H](OC(=O)C3CC3)C3=C(C)[C@@H](OC(=O)[C@H](O)[C@@H](NC(=O)c4ccccc4)c4cccs4)C[C@@](O)([C@@H](OC(=O)c4ccccc4)[C@H]21)C3(C)C` [Compound 0919] here?
Answer: Its IC50 is under 1 nM.

Question: For `CC(=O)O[C@@]12CO[C@@H]1C[C@H](O)[C@@]1(C)C(=O)[C@H](OC(=O)C3CC3)C3=C(C)[C@@H](OC(=O)[C@H](O)[C@@H](NC(=O)c4ccccc4)C4CC4)C[C@@](O)([C@@H](OC(=O)c4ccccc4)[C@H]21)C3(C)C` [Compound 0923], which IC50 is on record?
Answer: Its IC50 is under 1 nM.

Question: How did the IC50 turn out when `CC(=O)O[C@@]12CO[C@@H]1C[C@H](O)[C@@]1(C)C(=O)[C@H](OC(=O)C3CC3)C3=C(C)[C@@H](OC(=O)[C@H](O)[C@@H](NC(=O)c4ccccc4)c4ccccc4)C[C@@](O)([C@@H](OC(=O)c4ccccc4)[C@H]21)C3(C)C` [Compound 0937] was run?
Answer: Its IC50 is under 10 nM.

Question: `CCCC(=O)O[C@H]1C(=O)[C@@]2(C)[C@H]([C@H](OC(=O)c3ccccc3)[C@]3(O)C[C@H](OC(=O)[C@H](O)[C@@H](NC(=O)OC(C)(C)C)c4cccnc4)C(C)=C1C3(C)C)[C@]1(OC(C)=O)CO[C@@H]1C[C@@H]2O` [Compound 0966] was tested. Which IC50 did it give?
Answer: Its IC50 is under 10 nM.

Question: Which IC50 does the source give for `CCCC(=O)O[C@H]1C(=O)[C@@]2(C)[C@H]([C@H](OC(=O)c3ccccc3)[C@]3(O)C[C@H](OC(=O)[C@H](O)[C@@H](NC(=O)OC(C)(C)C)c4ccncc4)C(C)=C1C3(C)C)[C@]1(OC(C)=O)CO[C@@H]1C[C@@H]2O` [Compound 0978] here?
Answer: Its IC50 is under 1 nM.

Question: `CCCC(=O)O[C@H]1C(=O)[C@@]2(C)[C@H]([C@H](OC(=O)c3ccccc3)[C@]3(O)C[C@H](OC(=O)[C@H](O)[C@@H](NC(=O)OC(C)(C)C)C4CC4)C(C)=C1C3(C)C)[C@]1(OC(C)=O)CO[C@@H]1C[C@@H]2O` [Compound 1020] was tested. Which IC50 did it give?
Answer: The IC50 was under 1 nM.

Question: `CCCC(=O)O[C@H]1C(=O)[C@@]2(C)[C@H]([C@H](OC(=O)c3ccccc3)[C@]3(O)C[C@H](OC(=O)[C@H](O)[C@@H](NC(=O)OC(C)(C)C)C(C)C)C(C)=C1C3(C)C)[C@]1(OC(C)=O)CO[C@@H]1C[C@@H]2O` [Compound 1031] was tested. Which IC50 did it give?
Answer: Its IC50 is under 10 nM.

Question: With `CCCC(=O)O[C@H]1C(=O)[C@@]2(C)[C@H]([C@H](OC(=O)c3ccccc3)[C@]3(O)C[C@H](OC(=O)[C@H](O)[C@@H](NC(=O)OC(C)(C)C)C4CCC4)C(C)=C1C3(C)C)[C@]1(OC(C)=O)CO[C@@H]1C[C@@H]2O` [Compound 1044] as the compound, how does the IC50 read?
Answer: The IC50 was under 1 nM.

Question: `CCCC(=O)O[C@H]1C(=O)[C@@]2(C)[C@H]([C@H](OC(=O)c3ccccc3)[C@]3(O)C[C@H](OC(=O)[C@H](O)[C@@H](NC(=O)OC(C)(C)C)c4ccccc4)C(C)=C1C3(C)C)[C@]1(OC(C)=O)CO[C@@H]1C[C@@H]2O` [Compound 1060] was tested. Which IC50 did it give?
Answer: Its IC50 is under 1 nM.

Question: For `CC(=O)O[C@@]12CO[C@@H]1C[C@H](O)[C@@]1(C)C(=O)[C@H](OC(=O)c3cccs3)C3=C(C)[C@@H](OC(=O)[C@H](O)[C@H](C=C(C)C)NC(=O)OC(C)(C)C)C[C@@](O)([C@@H](OC(=O)c4ccccc4)[C@H]21)C3(C)C` [Compound 1879], which IC50 is on record?
Answer: The IC50 was under 10 nM.

Question: `CC(=O)O[C@@]12CO[C@@H]1C[C@H](O)[C@@]1(C)C(=O)[C@H](OC(=O)c3cccs3)C3=C(C)[C@@H](OC(=O)[C@H](O)[C@@H](NC(=O)OC(C)(C)C)c4ccccn4)C[C@@](O)([C@@H](OC(=O)c4ccccc4)[C@H]21)C3(C)C` [Compound 1883] was tested. Which IC50 did it give?
Answer: Its IC50 is under 10 nM.
